Measurements reported in ChEMBL document CHEMBL1201862, “PubChem BioAssay data set” (2004).
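Where inhibition never reached the appropriate level, the endpoint shown equals the highest concentration tested. Otherwise, values were interpolated linearly from a five-concentration, 48-hour dose response in 96-well plates. Here, GI50 denotes the concentration required for 50% inhibition of growth.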 Activity calls are given as the source filed them. Cut-off read from the data, not from the text of the source: active = GI50 up to about 1.1 µM and inactive = higher.

Tests used:
Test in all cases: NCI-60 cell line screen, 48 h
[1] = test system: CCRF-CEM
[2] = test system: EKVX
[3] = test system: HCT-15
[4] = test system: HOP-62
[5] = test system: HOP-92
[6] = test system: HT-29
[7] = test system: Hs-578T
[8] = test system: IGROV-1
[9] = test system: MDA-MB-231
[10] = test system: MDA-N
[11] = test system: NCI/ADR-RES
[12] = test system: OVCAR-3
[13] = test system: OVCAR-4
[14] = test system: OVCAR-5
[15] = test system: RXF 393
[16] = test system: SF-268
[17] = test system: SN12C
[18] = test system: TK-10
[19] = test system: NCI-H460
[20] = test system: SF-539

Row | SMILES | GI50 [1] | GI50 [2] | GI50 [3] [µM] | GI50 [4] | GI50 [5] | GI50 [6] | GI50 [7] | GI50 [8] | GI50 [9] | GI50 [10] | GI50 [11] | GI50 [12] | GI50 [13] | GI50 [14] | GI50 [15] | GI50 [16] | GI50 [17] | GI50 [18] | GI50 [19] | GI50 [20]
1 | O=C(O)c1cc2ccccc2c(/N=N/c2ccccc2)c1O | 38.5 µM (inactive) | 23.4 µM (inactive) | 27.9 | 14.8 µM (inactive) | 55.3 µM (inactive) | 11.8 µM (inactive) | 6.82 µM (inactive) | 34.1 µM (inactive) | > 100 µM (inactive) | 19.1 µM (inactive) | 27.2 µM (inactive) | 26.2 µM (inactive) | > 100 µM (inactive) | 24.9 µM (inactive) | 34.9 µM (inactive) | 30 µM (inactive) | 23.3 µM (inactive) | 29 µM (inactive) |  | 
2 | CC(=O)Nc1ccc2c(c1)/C(=C\c1ccc([N+](C)(C)C)cc1)c1ccccc1-2 | 22.5 µM (inactive) | 26.5 µM (inactive) | > 100 | 48.3 µM (inactive) | 18.1 µM (inactive) | 35.5 µM (inactive) | 35.4 µM (inactive) | 35.4 µM (inactive) | 4.43 µM (inactive) | 32.8 µM (inactive) | > 100 µM (inactive) | 36.5 µM (inactive) | 35.3 µM (inactive) | 18.8 µM (inactive) | > 100 µM (inactive) | 64.9 µM (inactive) | 31 µM (inactive) | > 100 µM (inactive) | 34.9 µM (inactive) | 
3 | CC1(C)O[C@@H](CO)[C@H]([C@@]23OC[C@H]4OC(C)(C)OC4[C@@H]2OC(C)(C)O3)O1 (stereo not given in full) |  | > 100 µM (inactive) | > 100 | > 100 µM (inactive) | > 100 µM (inactive) | > 100 µM (inactive) | > 100 µM (inactive) | > 100 µM (inactive) | > 100 µM (inactive) | > 100 µM (inactive) | > 100 µM (inactive) | > 100 µM (inactive) | > 100 µM (inactive) | > 100 µM (inactive) | > 100 µM (inactive) | > 100 µM (inactive) | > 100 µM (inactive) |  | > 100 µM (inactive) | 
4 | CCOP(=O)(Nc1ccccc1P(=O)(OCC)OCC)OCC |  | > 100 µM (inactive) | > 100 | > 100 µM (inactive) | > 100 µM (inactive) | > 100 µM (inactive) | > 100 µM (inactive) | > 100 µM (inactive) | > 100 µM (inactive) | > 100 µM (inactive) | > 100 µM (inactive) | > 100 µM (inactive) | > 100 µM (inactive) | > 100 µM (inactive) | > 100 µM (inactive) | > 100 µM (inactive) |  | > 100 µM (inactive) | > 100 µM (inactive) | 
5 | CCCCOC(=O)C(NC(C(=O)OCCCC)c1cc(C(C)(C)C)c(O)c(C(C)(C)C)c1)c1cc(C(C)(C)C)c(O)c(C(C)(C)C)c1 (stereo not given) | 73.8 µM (inactive) | > 100 µM (inactive) | > 100 | > 100 µM (inactive) | 75 µM (inactive) | 76 µM (inactive) | > 100 µM (inactive) | > 100 µM (inactive) | > 100 µM (inactive) | > 100 µM (inactive) | > 100 µM (inactive) | > 100 µM (inactive) | > 100 µM (inactive) | > 100 µM (inactive) |  | > 100 µM (inactive) | > 100 µM (inactive) | > 100 µM (inactive) |  | > 100 µM (inactive)
6 | COc1ccc(C(c2ccc3c(c2)OCO3)N2C(=O)CCC2C(=O)O)cc1 (stereo not given) | > 100 µM (inactive) | > 100 µM (inactive) | > 100 | > 100 µM (inactive) | > 100 µM (inactive) | > 100 µM (inactive) | > 10 µM (inactive) | > 100 µM (inactive) | > 100 µM (inactive) | > 100 µM (inactive) | > 100 µM (inactive) | > 100 µM (inactive) | > 100 µM (inactive) | > 100 µM (inactive) |  | > 100 µM (inactive) | > 100 µM (inactive) | > 100 µM (inactive) | > 100 µM (inactive) | > 100 µM (inactive)
7 | CCCCCCCc1ccc(-c2nnc(/N=N/c3ccc(OCCCCC)cc3)s2)s1 | > 100 µM (inactive) | > 100 µM (inactive) | > 100 | > 100 µM (inactive) |  | > 100 µM (inactive) | > 100 µM (inactive) | 79.1 µM (inactive) | > 100 µM (inactive) | > 100 µM (inactive) | > 100 µM (inactive) | > 100 µM (inactive) | > 100 µM (inactive) | > 100 µM (inactive) | > 100 µM (inactive) | > 100 µM (inactive) | > 100 µM (inactive) | > 100 µM (inactive) | > 100 µM (inactive) | > 100 µM (inactive)
8 | CCSC1=N/C(=C\c2ccco2)C(Nc2ccc(C)cc2)=N1 | > 100 µM (inactive) | > 100 µM (inactive) | > 100 | > 100 µM (inactive) | > 100 µM (inactive) | > 100 µM (inactive) | > 100 µM (inactive) | 60.5 µM (inactive) | > 100 µM (inactive) | > 100 µM (inactive) | > 100 µM (inactive) | > 100 µM (inactive) |  | > 100 µM (inactive) |  | > 100 µM (inactive) | > 100 µM (inactive) | > 100 µM (inactive) |  | 
9 | COc1ccccc1C1=C2C(=O)N(C)C(c3ccccc3OC)=C2C(=O)N1C | > 100 µM (inactive) | > 100 µM (inactive) | > 100 | 18.9 µM (inactive) | 30.3 µM (inactive) | > 100 µM (inactive) | 43.8 µM (inactive) | > 100 µM (inactive) | 48.1 µM (inactive) | > 100 µM (inactive) | 45.7 µM (inactive) | 33.5 µM (inactive) | 37.2 µM (inactive) | > 100 µM (inactive) |  | 36.1 µM (inactive) | > 100 µM (inactive) | 70.6 µM (inactive) | 84.1 µM (inactive) | 27.6 µM (inactive)
10 | COc1cc(OC)cc(-n2c(N)c(-c3nc4ccccc4s3)c3ccc([N+](=O)[O-])cc3c2=O)c1 | 69.7 µM (inactive) |  | 61.1 |  | 3.27 µM (inactive) | > 100 µM (inactive) | 27.7 µM (inactive) |  | 21.3 µM (inactive) | > 100 µM (inactive) | 24.9 µM (inactive) |  | 17 µM (inactive) |  |  | 57 µM (inactive) | 18.4 µM (inactive) | 13.3 µM (inactive) | 32.7 µM (inactive) | 13.4 µM (inactive)
11 | CC(C)=CCc1cc(/C=C/C(=O)O)cc(CC=C(C)C)c1O [ARTEPILLIN] | > 100 µM (inactive) | 81.7 µM (inactive) | 76 | > 100 µM (inactive) | 19.7 µM (inactive) | 47.3 µM (inactive) | > 100 µM (inactive) | 73.5 µM (inactive) | > 100 µM (inactive) | > 100 µM (inactive) | > 100 µM (inactive) | > 100 µM (inactive) | > 100 µM (inactive) | > 100 µM (inactive) |  | > 100 µM (inactive) | > 100 µM (inactive) | > 100 µM (inactive) | > 100 µM (inactive) | > 100 µM (inactive)
